Reference: patent publication US20200054646A1, “USE OF PHENOTHIAZINE DERIVATIVE IN THE TREATMENT OF INFECTIOUS PURPURA OR PURPURA FULMINANS” (priority 2016, published 2020)

What was measured:
[1] = tested on: Nm2C4.3 microcolonies on HBMEC; test: Dispersion of meningococcal microcolonies at the surface of infected human endothelial cells; type: cell-based, Neisseria meningitidis
Protocol: (§1) Human […] microvascular endothelial cells (HBMEC) were infected with Nm2C4.3 for 1 h 30, treated with Trifluoperazine (10-40 μM) for 30 minutes, before fixation and immunofluorescence analysis using anti-Nm2C4.3 antibody and Alexa Fluor 633 Phalloidin. (A) Representative fluorescence microscopy showing bacterial colony (white dots) formed at the surface of the endothelial cells. (B) Quantification of the bacterial colonization was performed using Image J software.
HBMEC, a human endothelial cell line isolated from bone marrow capillaries (Schweitzer et al., 1997) were grown in Dulbecco's Modified Eagle Medium (DMEM) 4.5 g/L-Glutamax (ThermoFischer) 10% FBS. Cells were grown on Thermanox coverslips coated with gelatin 2% (BD Difco #214340) for 2 days to reach confluency. Cells were then infected with a suspension of Nm2C4.3 (˜10^7 CFU/ml) in DMEM/FBS during 30 minutes to allow bacterial adhesion. Cells were then washed three times with medium to remove non-adherent bacteria and infection was pursued for 1 h 30: adherent bacteria grew at the endothelial cell surface and formed micro-colonies. Trifluoperazine was then added to obtain final concentrations of 10, 20, 30 and 40 μM. After incubation for 30 minutes, cells were washed and fixed in 4% Paraformaldehyde for 10 min, washed three times with PBS, and permeabilized with 0.1% Triton X-100 in PBS for 10 min. Cells were blocked for 30 min with 3% BSA in PBS and were incubated for 2 h with the primary antibodies (Rabbit polyclonal anti-Nm2C4.3 strain, kindly provided by Dr X. Nassif, INEM, Paris). After three washes with PBS, cells were incubated for 1 h with […] anti-rabbit IgG (Jackson ImmunoResearch Laboratories), together with Alexa Fluor 633 Phalloidin (Thermofischer) and DAPI (0.5 mg ml-1, Sigma Aldrich) to stain Actin and nuclei, respectively. Labelled preparations were mounted in Glycergel media (DAKO) and image acquisitions were performed with a DM16000 microscope (Leica, X40). Quantification was done with ImageJ software (NIH). Results are presented as a vascular colonisation index corresponding to the area occupied by the fluorescently labelled bacteria per fields in relation to the area occupied by the fluorescently labelled human endothelial cells (Actin staining). Statistical analysis were performed with Student t test.

[2] = tested on: HBMECs infected with meningococci; test: PECAM-1 recruitment at bacterial adhesion sites in infected HBMEC; type: cell-based, human; details: 5 μM, 2 h infection
Protocol: (A) Monolayers of HBMECs were non-infected or infected for 2 h with meningococci and the effect on the localisation of the endothelial cell junction proteins PECAM-1 and […]-catenin was analysed by immunofluorescence analysis. Arrows point at PECAM-1 molecules recruited at bacterial adhesion sites (B) HBMECs were infected for 2 h with meningococci in the presence or in the absence of 5 μM Trifluoperazine and the effect on junctional PECAM-1 and on the endothelial cell cytoskeleton remodelling (Ezrin, Actin) was analysed by immunofluorescence analysis. (C) Quantification of Actin and PECAM-1 recruitment at sites of bacterial adhesion was performed using Image J software.
HDMECs were grown in their specific culture medium (Promocell #C-12210) and confluent monolayers were infected with 2C4.3. Briefly, bacteria were precultured in prewarmed cell culture medium for 1 h 30 min at 37° C. 5% CO2. The OD600 was adjusted to 0.1 and HDMECs were then overlaid with bacteria for 30 min (MOI of 100). Unbound bacteria were removed by three washes in cell culture media and infection was allowed to proceed for 1 h at 37° C. 5% CO2. Gentamicin was added at 150 μg/ml for 1 h, then after three washes in cell culture media, Trifluoperazine was applied where mentioned at 50 μM for 20 min. […] Quantifications were done using ImageJ software (NIH).

[3] = tested on: meningococcal colonization of the human dermal vasculature; test: In vivo infection of mice engrafted with human skin
[4] = tested on: meningococcal colonization of human brain vessels; set-up: species or system Neisseria meningitidis; details: 40 μM for 30 min
From the text: Fresh human brain sections were obtained from frontal lobe specimens of macroscopically and histologically normal brain (confirmed by a neuropathologist) of individuals referred to the Department of Forensic Medicine for unexplained out-of-hospital sudden death (consent forms ML1094, PFS 10-008, ClinicalTrials.gov NCT00320099 from The Institutional Review Boards of the Poincare Hospital, Versailles-Saint Quentin University and the French “Agence de la Biomédecine”). After freezing of the brain tissue with isopentane cooled in liquid nitrogen, the sections, 7 μm thick, containing leptomeninges, cortical ribbon and the underlying white matter were immobilised on Superfrost™ plus microscope slides and stored at −80° C. […] Adherent meningococci were detected by immunofluorescence analysis: brain sections were incubated with the following primary antibodies for 2 h in PBS/BSA 0.1%: monoclonal anti-human CD31/PECAM-1 mouse monoclonal antibody (clone HEC7, ABCAM, ab119339) and a rabbit polyclonal serum anti-Nm 2C4.3 strain (1:3000). […] Entire samples were scanned using a Lamina (Perkin Helmer) and were further analysed using confocal microscopy (spinning disk Leica, 63×). Quantification analysis of the images (n=50 per section) was performed using ImageJ software (NIH). […]

[5] = tested on: Enteropathogenic Escherichia Coli (EPEC escN mutant, GFP) microcolonies on HBMEC; test: Dispersion of EPEC microcolonies at the surface of human endothelial cells; type: cell-based; details: 10 to 50 μM, 30 min, dose-dependent
Protocol: as §1, with “a GFP-expressing mutant Enteropathogenic Escherichia Coli, which lacks the ATPase escN (EPEC […]escN-GFP)” for “Nm2C4.3”, “2 h, then” for “1 h 30,”, “(10-50” for “(10-40”, “using” for “using anti-Nm2C4.3 antibody and”
HBMEC were grown on Thermanox coverslips coated with gelatin 2% for 2 days to reach confluency. Cells were then infected for 1 h with a GFP-expressing mutant Enteropathogenic Escherichia Coli (EPEC), which lacks the ATPase escN. This strain is unable to translocate effector proteins and is more prone to form pilus-dependent microcolony at the host cell surface (Jensen et al., 2015). Cells were then washed three times with medium to remove non-adherent bacteria and infection was pursued for 1 extra hour, to allow bacterial growth at the endothelial cell surface to form microcolonies. Trifluoperazine was then added to obtain final concentrations of 10, 20, 30 and 50 μM. After incubation for 30 minutes, cells were washed and fixed in 4% Paraformaldehyde for 10 min, washed three times with PBS. […] Quantification was done with ImageJ software (NIH). […]

Structure (SMILES) | dispersion of microcolonies at the endothelial cell surface ([1]; Gentamicin 150 μg/ml) | PECAM-1 recruitment at bacterial adhesion sites [2] | bacterial colonization [2] | colonization of the human dermal vasculature ([3]; mice engrafted with human skin) | incidence of vascular alteration ([3]; mice engrafted with human skin) | signs of intravascular coagulation ([3]; mice engrafted with human skin) | hallmark of vascular inflammation ([3]; trifluoperazine alone or in combination with cefotaxime) | reduction of vascular colonization of the human brain vessels [4] [%] | concentration range of dose-dependent microcolony dispersion ([1]; 30 min, HBMEC and primary HDMEC) [µM] | dispersion of compact microcolonies already established at the endothelial cell surface ([1]; treatment for 30 min, HBMEC (also HDMEC)) | dispersion of EPEC microcolonies [5]
CN[C@@H]1[C@@H](O)C(O[C@@H]2[C@@H](O)[C@H](O[C@H]3O[C@H]([C@@H](C)NC)CC[C@H]3N)[C@@H](N)C[C@H]2N)OC[C@]1(C)O (stereo partly drawn) [Gentamicin, (3R,4R,5R)-2-{[(1S,2S,3R,4S,6R)-4,6-diamino-3-{[(2R,3R,6S)-3-amino-6-[(1R)-1-(methylamino)ethyl]oxan-2-yl]oxy}-2-hydroxycyclohexyl]oxy}-5-methyl-4-(methylamino)oxane-3,5-diol] | poorly induced the dispersion | – | – | – | – | – | – | – | – | – | –
CN1CCN(CCCN2c3ccccc3Sc3ccc(C(F)(F)F)cc32)CC1 [Trifluoperazine] | – | prevented PECAM-1 recruitment | did not affect | prevents the massive colonization | reduces incidence of vascular alteration | reduces the signs of intravascular coagulation | drastically reduced | 80 | 10 to 40 | induced their dispersion | induced the dispersion
